Literature values as cited in patent publication US11033512B2, “Transdermal therapeutic system containing asenapine and silicone acrylic hybrid polymer” (LTS LOHMANN Therapie-Systeme AG, priority 2017, dated 2021).

Legend:
[1] = biological target: serotonin 5-HT2A receptors (Homo sapiens, UniProt P28223)
serotonin 5-HT2A receptors, sequence (P28223 whole entry): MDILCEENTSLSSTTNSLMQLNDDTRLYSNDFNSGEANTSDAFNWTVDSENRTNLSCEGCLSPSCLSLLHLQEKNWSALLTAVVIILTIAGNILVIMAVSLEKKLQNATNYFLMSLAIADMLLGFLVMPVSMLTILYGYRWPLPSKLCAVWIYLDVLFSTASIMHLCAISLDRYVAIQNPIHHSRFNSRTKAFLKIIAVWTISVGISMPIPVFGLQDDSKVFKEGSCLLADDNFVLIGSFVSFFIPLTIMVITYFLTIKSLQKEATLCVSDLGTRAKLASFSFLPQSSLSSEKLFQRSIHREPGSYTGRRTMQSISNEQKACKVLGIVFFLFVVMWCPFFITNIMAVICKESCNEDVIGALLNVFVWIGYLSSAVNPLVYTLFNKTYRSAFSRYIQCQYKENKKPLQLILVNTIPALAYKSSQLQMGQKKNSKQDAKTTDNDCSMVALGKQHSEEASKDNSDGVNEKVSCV

CN1C[C@H]2c3ccccc3Oc3ccc(Cl)cc3[C@@H]2C1 (relative stereo) [asenapine, (3aRS,12bRS)-rel-5-chloro-2,3,3a,12b-tetrahydro-2-methyl-1H-dibenz[2,3:6,7]oxepino[4,5-c]pyrrole]
time of peak blood plasma concentrations (following sublingual administration): 0.5 to 1.5 h
terminal disposition half-life (following sublingual administration, therapeutic doses): ≥ 24 h
bioavailability (if ingested): < 2%
affinity [1]: high affinity
